Measured values reported in patent US20090176786A1, “Benzoylurea Compounds and Use Thereof” (priority 2005, published 2009).

Tests used:
Format in all cases: in vivo
Plutella xylostella [1] = experiment: Test Example 2: cabbage root immersion (systemic), dead pest rate of Plutella xylostella larvae; conditions: Plutella xylostella, 120 h, root immersion 5 days, 10 second-instar larvae, after 5 days at 24° C.; for pest or weed control at 25 ppm: test concentration 25 ppm
Description: In 0.25 mL of a mixture solution of Sorgen TW-20 (manufactured by Daiichi Industries Pharmaceuticals, Co., Ltd.) and acetone (mixture volume ratio; Sorgen TW-20:acetone=1:19), 2.5 mg of the present compound (1), (2), (3), (4), (7), (10), (11), (12), (16), (18), (19), (20), (21), (22), (25), (30), (36), (37), (41), (42), (52), (54), (56), (57), (60), (62), (105) or (109) was dissolved. The solution was diluted with ion-exchanged water so that the active ingredient concentration became to a predetermined concentration to prepare a pesticidal solution for test of the test compound. The root part of cabbages in the fourth leaf period were washed with tap water to remove soils, and then immersed in the pesticidal solution for test. After 5 days from immersion of the root part, the root part was removed, and the leaves and stems were put in a cup (volume; 180 mL). In the cup 10 second-instar larvae of Plutella xylostella were released, and the cup was stored at 24° C. After 5 days, the number of dead pests was counted, and the dead pest rate was calculated by the following equation:
(§1) Dead pest rate(%)=(the number of dead pests/the number of tested pests)×100
The test concentrations of the other present compounds were 25 ppm.

[2] = tested on: Frankliniella occidentalis; experiment: Test Example 4: spray on cucumber, control value against Frankliniella occidentalis larvae; conditions: 168 h, test concentration 50 ppm, spray 20 ml/cup on cucumber, 30 larvae, seven days after spraying
Description: The obtained preparation was diluted with water so that the active ingredient concentration became to a predetermined concentration to prepare a spray solution for test. […] were planted in polyethylene cups, and were grown until the first true leaf was developed. The spray solution for test prepared above was sprayed at the rate of 20 ml/cup on the cucumber. After the pesticidal solution sprayed onto the cucumber was dried, the first true leaf was cut off and then placed on a filter paper (diameter: 70 mm) containing water in a polyethylene cup (diameter: 110 mm). On the cucumber leaf, 30 larvae of Frankliniella occidentalis were released, and the polyethylene cup was capped. Seven days after spraying, the number of pests surviving on the cucumber leaf was counted, and a control value was calculated by the following equation: Control value(%)={1−(Cb×Tai)/(Cai×Tb)}×100 wherein, each symbol has following meaning: Cb: the number of pests before treatment in a non-treated area Cai: the number of pests at the time of observation in a non-treated area Tb: the number of pests before treatment in a treated-area Tai: the number of pests at the time of observation in a treated-area. […] The test concentrations of the other present compounds were 50 ppm.

Plutella xylostella [3] = experiment: Test Example 9: spray on plants, cut aerial part, dead pest rate of third-instar Plutella xylostella larvae; conditions: 120 h, spray 20 ml/cup, 10 third-instar larvae, after 5 days at 25° C.; for pest or weed control at 200 ppm: test concentration 200 ppm; for pest or weed control at 50 ppm: test concentration 50 ppm; for pest or weed control at 12.5 ppm: test concentration 12.5 ppm
Description: In a mixed solution (0.1 mL) of xylene and N,N-dimethylformamide (mixture volume ratio; xylene:N,N-dimethylformamide=1:1), 30 mg of the present compounds (3), (4), (20), (35), (62), (81), (100), (101) or (112) was dissolved, and further a mixed solution (0.1 mL) of xylene and SORPOL 3005X (manufactured by Toho Chemcials, Co., Ltd.) (mixture volume ratio; xylene:SORPOL 3005X=1:9) was added thereto. The solution was diluted with ion-exchanged water so that the active ingredient became to the predetermined concentration to prepare a pesticidal solution for test of the test compound.
[…] were planted in polyethylene cups, and grown until the third true leaf or the fourth true leaf was developed. The spray solution for test prepared above was sprayed at a rate of 20 ml/cup on the cabbages.
After the pesticidal solution for test was dried, the aerial part of the cabbage was cut, and put into a polyethylene cup having a volume of 100 ml together with 10 third-instar larvae of Plutella xylostella, and stored at 25° C. After 5 days, the number of dead pests was countered, and the dead pest rate was calculated by the following equation:
as §1
Test concentrations of the others were 200 ppm.

Plutella xylostella [4] = experiment: Test Example 1: spray on cabbage, dead pest rate of Plutella xylostella larvae; conditions: 500 ppm spray solution, 20 ml/cup on cabbage, 5 second-instar larvae, after 5 days; for pest or weed control at 500 ppm: Plutella xylostella, 120 h
Description: Ten parts of the present compound (1), (2), (5) to (19), (21) to (34), (36) to (61), (63), (64), (68) to (71), (74), (76) to (78), (82) to (83), (89), (93), (94), (97), (99), (102) to (110), (111), (115), (116) (117) to (120) or (123) to (134); 35 parts of white carbon containing 50 parts of polyoxyethylene alkyl ether sulfate ammonium salt; and 55 parts of water were mixed, and finely ground by a wet grinding method to obtain a 10% flowable agent. The obtained flowable agent was diluted with water so that the active ingredient concentration became to 500 ppm to prepare a spray solution for test.
Cabbages were planted in polyethylene cups, and grown until the third true leaf or the fourth true leaf was developed. The spray solution for test prepared above was sprayed at a rate of 20 ml/cup on the cabbages.
After the pesticidal solution sprayed onto the cabbages was dried, 5 second-instar larvae of Plutella xylostella were put on the cabbages. After 5 days, the number of dead Plutella xylostella was examined, and a dead pest rate was calculated by the following equation:
as §1

Spondoptela litura = experiment: Test Example 3: treated artificial diet (Insecta LF), dead pest rate of Spondoptela litura larvae; conditions: 2 mL on Insecta LF diet, 5 fourth-instar larvae, after 6 days; for pest or weed control at 500 ppm: 144 h
Text: Ten parts of the present compound (1) to (5), (7) to (13), (18) to (33), (35) to (49), (52) to (56), (58) to (61), (71), (73) to (77), (79), (80), (82), (83), (93), (94), (95), (96), (97), (100) to (109), (111), (112), (115), (117), (119), (121), or (123) to (133), 35 parts of white carbon containing 50 parts of polyoxyethylene alkyl ether sulfate ammonium salt, and 55 parts of water were mixed, and finely ground by a wet grinding method to obtain a preparation. The obtained preparation was diluted with water so that the active ingredient concentration became to 500 ppm to prepare a pesticidal solution for test. On the bottom of a polyethylene cup having a diameter of 5.5 cm, a filter paper having a diameter of 5.5 cm was placed, on which Insecta LF (Nippon Agriculture Industries, Co., Ltd.) sliced in a thickness of 6 mm and further cut half was laid, and to which 2 mL of the above-described pesticidal solution for test was added. After air-dried, 5 fourth-instar larvae of Spondoptela litura were released in the cup, and the cup was capped. After 6 days, the number of dead pests was counted, and the dead pest rate was calculated by the following equation:
as §1

Plutella xylostella [5] = experiment: Test Example 6: cabbage root immersion, Plutella xylostella, against comparative compound C; conditions: 100 ppm; root immersion 5 days; 10 second-instar larvae; after 5 days at 24° C.
Description: In 0.25 mL of a mixed solution of Tween-20 and acetone (mixture volume ratio: Tween-20:acetone=1:19), 2.5 mg of the present compound (93) or comparative compound C was dissolved. The solution was diluted with ion-exchanged water so that the active ingredient concentration became to the predetermined concentration (100 ppm) to prepare a pesticidal solution for test of the test compound. The root part of cabbages in the fourth leaf period was washed with tap water to remove soils, and then immersed in the pesticidal solution for test. After 5 days from immersion of the root part, the root part was removed, and the leaves and stems were put in a polyethylene cup (volume; 180 mL). In the cup 10 second-instar larvae of Plutella xylostella were released, and the cup was stored at 24° C. After 5 days, the number of dead pests was countered, and the dead pest rate was calculated by the following equation:
as §1

CN(C(=O)N(CCOc1ccccc1)C(=O)c1c(F)cccc1F)c1ccc(SC(F)(F)F)cc1F [(62)]
pest or weed control at 25 ppm (Plutella xylostella [1]): 100% | pest or weed control at 50 ppm [2]: 100% | pest or weed control at 200 ppm (Plutella xylostella [3]): 100%

CN(C(=O)N(Cc1ccco1)C(=O)c1c(F)cccc1F)c1ccc(SC(F)(F)F)cc1F [(64)]
pest or weed control at 500 ppm (Plutella xylostella [4]): 100%

CN(C(=O)N(CC1CCCO1)C(=O)c1c(F)cccc1F)c1ccc(SC(F)(F)F)cc1F (centres unmarked) [(63)]
pest or weed control at 500 ppm (Plutella xylostella [4]): 100%

CN(C(=O)N(C(=O)OCc1ccccc1)C(=O)c1c(F)cccc1F)c1ccc(SC(F)(F)F)cc1F [(97)]
pest or weed control at 500 ppm (Spondoptela litura): 100% | pest or weed control at 50 ppm [2]: 100% | pest or weed control at 500 ppm (Plutella xylostella [4]): 100%

CN(C(=O)NC(=O)c1c(F)cccc1F)c1ccc(SC(F)(F)C(F)F)cc1F [(2)]
pest or weed control at 25 ppm (Plutella xylostella [1]): 100% | pest or weed control at 50 ppm [2]: 100% | pest or weed control at 500 ppm (Plutella xylostella [4]): 100%

CN(C(=O)NC(=O)c1c(F)cccc1F)c1ccc(C(=O)OC(C)(C)C)cc1 [(82)]
dead pest rate (Spondoptela litura; 500 ppm): 100% | control value (Plutella xylostella [4]): 100%

CN(C(=O)N(C(=O)c1c(F)cccc1F)N(C)C)c1ccc(SC(F)(F)F)cc1F [(115)]
pest or weed control at 500 ppm (Spondoptela litura): 100% | pest or weed control at 500 ppm (Plutella xylostella [4]): 100%

C#CCSc1ccc(N(C)C(=O)NC(=O)c2c(F)cccc2F)c(F)c1 [(89)]
pest or weed control at 500 ppm (Plutella xylostella [4]): 100%

CN(C(=O)c1c(F)cccc1F)C(=O)N(C)c1cc(F)c(SC(F)(F)F)cc1F [(101)]
pest or weed control at 50 ppm [2]: 100% | pest or weed control at 200 ppm (Plutella xylostella [3]): 100%

COC(=O)CN(C(=O)c1c(F)cccc1F)C(=O)N(C)c1ccc(SC(F)(F)F)cc1F [(81)]
pest or weed control at 50 ppm [2]: 100% | pest or weed control at 200 ppm (Plutella xylostella [3]): 100%

CN(C(=O)NC(=O)c1c(F)cccc1F)c1cc(Cl)c(SC(F)(F)C(F)F)c(Cl)c1 [(93)]
pest or weed control at 500 ppm (Spondoptela litura): 100% | dead pest rate (Plutella xylostella [5]): 90% | pest or weed control at 500 ppm (Plutella xylostella [4]): 100%

CCN(C(=O)NC(=O)c1c(F)cccc1F)c1ccc(SC(F)(F)F)cc1F [(4)]
pest or weed control at 25 ppm (Plutella xylostella [1]): 100% | pest or weed control at 50 ppm [2]: 100% | pest or weed control at 50 ppm (Plutella xylostella [3]): 100%

O=C(NC(=O)c1c(F)cccc1F)Nc1cc(Cl)c(SC(F)(F)C(F)F)c(Cl)c1 [comparative compound C, reference compound]
dead pest rate (Plutella xylostella [5]): 20%

CON(C(=O)c1c(F)cccc1F)C(=O)N(C)c1ccc(SC(F)(F)F)cc1F [(116)]
pest or weed control at 500 ppm (Plutella xylostella [4]): 100%

CN(C(=O)c1c(F)cccc1F)C(=O)N(C)c1ccc(SC(F)(F)F)cc1 [(117)]
pest or weed control at 500 ppm (Spondoptela litura): 100% | pest or weed control at 50 ppm [2]: 100%

C=CCSc1ccc(N(C)C(=O)NC(=O)c2c(F)cccc2F)c(F)c1 [(83)]
pest or weed control at 500 ppm (Spondoptela litura): 100% | pest or weed control at 500 ppm (Plutella xylostella [4]): 100%

CN(C(=O)NC(=O)c1c(F)cccc1Cl)c1ccc(SC(F)(F)F)cc1F [(3)]
pest or weed control at 25 ppm (Plutella xylostella [1]): 100% | pest or weed control at 12.5 ppm (Plutella xylostella [3]): 100%

CN(C(=O)N(CC[S+](C)[O-])C(=O)c1c(F)cccc1F)c1ccc(SC(F)(F)F)cc1F (centres unmarked) [(74)]
control value (Plutella xylostella [4]): 100%

CN(C(=O)NC(=O)c1c(F)cccc1F)c1cc(F)c(SC(F)(F)F)cc1F [(100)]
pest or weed control at 200 ppm (Plutella xylostella [3]): 100%

Cc1c(SC(F)F)ccc(N(C)C(=O)N(C)C(=O)c2c(F)cccc2F)c1C [(112)]
pest or weed control at 500 ppm (Spondoptela litura): 100% | pest or weed control at 50 ppm (Plutella xylostella [3]): 100%

CN(C(=O)NC(=O)c1c(F)cccc1F)c1ccc(S(=O)(=O)C(F)(F)F)cc1F [(20)]
pest or weed control at 5 ppm (Plutella xylostella [1]; test concentration of 5 ppm, read-out: dead pest rate): 100% | pest or weed control at 12.5 ppm (Plutella xylostella [3]): 100%

CN(C(=O)N(C(=O)c1c(F)cccc1F)S(=O)(=O)c1ccccc1)c1ccc(SC(F)(F)F)cc1F [(99)]
pest or weed control at 500 ppm (Plutella xylostella [4]): 100%

Cc1c(SC(F)F)ccc(N(C)C(=O)NC(=O)c2c(F)cccc2F)c1C [(111)]
pest or weed control at 500 ppm (Spondoptela litura): 100% | pest or weed control at 500 ppm (Plutella xylostella [4]): 100%

Cc1cc(SC(F)F)ccc1N(C)C(=O)NC(=O)c1c(F)cccc1F [(35)]
pest or weed control at 50 ppm (Plutella xylostella [3]): 100%

CN(C(=O)NC(=O)c1c(F)cccc1F)c1ccc(SC(F)(F)F)cc1F [(1)]
pest or weed control at 25 ppm (Plutella xylostella [1]): 100% | pest or weed control at 50 ppm [2]: 100% | pest or weed control at 500 ppm (Plutella xylostella [4]): 100%
